Measurements: patent US20060110401A1, “Mixture of peptides from c and ns3 proteins of the hepatitis c virus and applications thereof” (priority 2002, published 2006)
Read-outs that look alike come from different tables or passages of the source. Residues, ends and D or L forms follow the SMILES beside them.

Tests used:
HLA-DR1 (DRB1*0101) = target: T1, HLA-DR1 (DRB1*0101) (Homo sapiens, UniProt P01903+P01911, A100R/D57E/F55L/F60I/F76Y/I96L/L162R/M171V/P40L/Q125E/R42F/V115G/Y59C); test: biochemical; type: binding; conditions: DRB1*0101
T1 construct: endogenous in cells; host or cells: homozygous EBV-transformed human B lymphocyte lines; immunopurified with antibody L243

HLA-DR7 (DRB1*0701) = HLA-DR7 (DRB1*0701) (Homo sapiens, UniProt P01903+P01911, A100R/A102G/A103Q/D57E/D86V/E43K/F76Y/K127E/L162R/M171V/P40G/Q125H/Q99D/R33Q/R42Y/R54Q/S133A/S66F/T210M/V115G/Y107V/Y59L/Y89S); test: biochemical; type: binding
HLA-DR11 (DRB1*1101) = HLA-DR11 (DRB1*1101) (Homo sapiens, UniProt P01903+P01911, A100R/A169T/A87E/I96F/K41T/L162R/M171V/P40S/Q125H/Q178H/Q39Y/Q99D/R42S/S66Y/T262R/V115G/W38E); test: biochemical; type: binding
HLA-DR13 (DRB1*1301) = HLA-DR13 (DRB1*1301) (Homo sapiens, UniProt P01903+P01911, A100E/A169T/K41T/L162R/M171V/P40S/Q125H/Q178H/Q39Y/Q99D/R42S/S66N/T262R/W38E/Y61H); test: biochemical; type: binding
HLA-DR15 (DRB1*1501) = target: T2, HLA-DR15 (DRB1*1501) (Homo sapiens, UniProt P01903+P01911); test: biochemical; type: binding
T2 construct: endogenous in cells; host or cells: homozygous EBV-transformed human B lymphocyte lines; immunopurified with antibody L243

HLA-DRB5 (DRB5*0101) = target: T3, HLA-DRB5 (DRB5*0101) (Homo sapiens, UniProt P01903+Q30154); test: biochemical; type: binding
T3 construct: endogenous in cells; host or cells: homozygous EBV-transformed human B lymphocyte lines; immunopurified with antibody L243

HLA-DP402 (DPB1*0402) = HLA-DP402 (DPB1*0402) (Homo sapiens, UniProt P04440+P20036, A65V/A84D/A85E/L207M); test: biochemical; type: binding; conditions: DP*0402; read-out: binds with good affinity to DP402
DR3 = test: DR3
Excerpt: (§1) Table printed on a drawing sheet, Figure 2
Where the first naming reader finds the target: head: DR3

DR4 = test: DR4
DR7 = test: DR7
DR13 = test: DR13
Excerpt: as §1
Where the first naming reader finds the target: head: DR13

DR15 = test: DR15
DRB3 = test: DRB3
DRB4 = test: DRB4
Excerpt: as §1
Where the first naming reader finds the target: head: DRB4

DRB5 = test: DRB5
DR11 = test: DR11
Excerpt: as §1
Where the first naming reader finds the target: head: DR11

DP401 = test: DP401
HLA-DR3 (DRB1*0301) = target: T4, HLA-DR3 (DRB1*0301) (Homo sapiens, UniProt P01903+P01911, A100K/A102G/A103R/A169T/F55Y/I96L/K41T/L162R/M171V/P40S/Q125H/Q178H/Q39Y/R42S/S66N/T106N/T262R/W38E/Y61H); test: biochemical; type: binding; conditions: tracer MT 2-16, read-out: IC50, binding to HLA-DR3
T4 construct: endogenous in cells; host or cells: homozygous EBV-transformed human B lymphocyte lines; immunopurified with antibody L243

HLA-DR4 (DRB1*0401) = target: T5, HLA-DR4 (DRB1*0401) (Homo sapiens, UniProt P01903+P01911, A100K/A169T/F76Y/I96L/K127E/L162R/M171V/N62H/P40V/Q125Y/R42H/S133A/S149N/S66Y/V115G/V209L/W38E); test: biochemical; type: binding
T5 construct: endogenous in cells; host or cells: homozygous EBV-transformed human B lymphocyte lines; immunopurified with antibody L243

HLA-DRB4 (DRB4*0101) = target: T6, HLA-DRB4 (DRB4*0101) (Homo sapiens, UniProt P01903+P13762, G164S); test: biochemical; type: binding
T6 construct: endogenous in cells; host or cells: homozygous EBV-transformed human B lymphocyte lines; immunopurified with antibody L243

[1] = tested on: T lymphocytes derived from PBMCs from patients chronically infected with HCV; type: cell-based, human; conditions: supernatant 48 h, —: not detected
DR1 = test: DR1
DP402 = test: DP402
[2] = tested on: CD4+ T lymphocyte lines derived from a seronegative individual; test: IFN-γ ELISPOT after in vitro immunization; type: cell-based, human; conditions: after 4 restimulations; for response of line P014/C (T lymphocytes secreting IFN-γ): FIG. 5C; for response of line P014/A (T lymphocytes secreting IFN-γ): FIG. 5A
Experimental: The ability of the peptides having good affinity for the HLA II molecules to induce stimulation of specific T lymphocytes in vitro was evaluated using blood samples from individuals seronegative for HCV. This involves evaluating the ability to recruit CD4+ precursor lymphocytes although they are, in a naïve individual, at very low frequency, i.e. to carry out an immunization in vitro by means of these peptides.
Peripheral blood mononuclear cells (PBMCs) were separated on a Ficoll gradient. The PBMCs were then cultured in AIM V medium (Life Technologies) and incubated in flasks, in an incubator at 37° C. in the presence of 5% of CO2. After overnight incubation, the non-adherent cells were recovered and loaded onto an LS+column (Miltenyi), and the CD4+ T lymphocytes thus purified were then frozen. The adherent cells were incubated for 5 days in AIM V medium containing 1000 U/ml of GM-CSF and 1000 U/ml of IL-4, and the cells that had differentiated into dendritic cells were then cultured for 2 days in the presence of 1 μg/ml of LPS, 1000 U/ml of IL-4 and 1000 U/ml of GM-CSF, so as to induce their maturation.
The mature dendritic cells (100 000 cells/well) were then incubated with a mixture of peptides (10 μg of each peptide), for 5 hours at 37° C. The mature dendritic cells were subsequently washed and then incubated, in the presence of the CD4+ T lymphocytes (100 000 cells/well) thawed beforehand, in medium containing 1000 U/ml of IL-6 and 10 ng/ml of IL-12. After 7 days, the culture was restimulated a first time by means of mature dendritic cells that had been thawed and loaded with the mixture of peptides beforehand, in medium containing IL-2 (10 U/ml) and IL-7 (5 ng/ml). 7 days later, the culture was restimulated, in a similar manner, in a medium containing no IL-2. After two further stimulations, under the above conditions, the cells were assayed by ELISPOT, in the following way:
[…]. After washing with PBS buffer and then with PBS/0.05% Tween, 100 μl of biotin-conjugated anti-IFNγ secondary antibody (7-B6-1-biotin, Mabtech), diluted to 1 μg/ml in PBS containing 0.05% Tween 20 and 1% BSA, were added to each well. After incubation for one hour, the plates were washed again, and incubated with 100 μl/well of Extravidin-AKP (No. 2636, SIGMA), diluted to 1/5000 in PBS containing 0.05% Tween 20 and 1% BSA. The immunoenzymatic reaction was then visualized by means of the kit No. 170-6432 (Biorad).

[3] = read-out: binds with good affinity to DR1
[4] = read-out: binds with good affinity to DR11
[5] = read-out: binds with good affinity to DRB5

Chain of HLA-DR11 (DRB1*1101) (P01903 26-254 limits assumed, other chains not shown): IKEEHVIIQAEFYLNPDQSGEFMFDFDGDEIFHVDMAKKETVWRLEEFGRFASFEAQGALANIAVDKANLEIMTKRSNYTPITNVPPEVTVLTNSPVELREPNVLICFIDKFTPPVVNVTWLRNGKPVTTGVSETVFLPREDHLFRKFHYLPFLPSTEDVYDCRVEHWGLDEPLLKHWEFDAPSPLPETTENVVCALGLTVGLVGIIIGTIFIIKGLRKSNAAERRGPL

In the case of `CC[C@H](C)[C@H](NC(=O)[C@H](CCC(N)=O)NC(=O)CNC(=O)CNC(=O)CNC(=O)[C@@H]1CCCN1C(=O)[C@H](Cc1ccccc1)NC(=O)[C@H](CCCCN)NC(=O)[C@@H](NC(=O)[C@H](CC(=O)O)NC(=O)[C@H](CCC(N)=O)NC(=O)[C@@H]1CCCN1)C(C)C)C(=O)N[C@H](C(=O)NCC(=O)NCC(=O)N[C@H](C(=O)N[C@@H](Cc1ccc(O)cc1)C(=O)N[C@@H](CC(C)C)C(=O)N[C@@H](CC(C)C)C(=O)N1CCC[C@H]1C(=O)N[C@@H](CCCNC(=N)N)C(=O)N[C@@H](CCCNC(=N)N)C(=O)NCC(=O)N1CCC[C@H]1C(=O)N[C@@H](CCCNC(=N)N)C(=O)N[C@@H](CC(C)C)C(=O)NCC(=O)N[C@H](C(=O)N[C@@H](CCCNC(=N)N)C(=O)O)C(C)C)C(C)C)C(C)C` [1C 19-47], the IC50 (HLA-DR1 (DRB1*0101); [3]) is reported as less than 1000 nM, the IC50 (HLA-DR7 (DRB1*0701); read-out: binds with good affinity to DR7) is reported as less than 1000 nM and the IC50 (HLA-DR11 (DRB1*1101); [4]) is reported as less than 1000 nM. The IC50 (HLA-DR13 (DRB1*1301); read-out: binds with good affinity to DR13) was less than 1000 nM, the IC50 (HLA-DR15 (DRB1*1501); DRB1*1501, read-out: binds with good affinity to DR15) was less than 1000 nM and the IC50 (HLA-DRB5 (DRB5*0101); [5]) was less than 1000 nM. The IC50 (HLA-DP402 (DPB1*0402)) was less than 1000 nM, the IC50 (DR3) was greater than 100000 nM and the IC50 (DR4) was 70000 nM. For the same compound, the IC50 (DR7) was 483 nM, the IC50 (DR13) was 288 nM and the IC50 (DR15) was 158 nM. For the same compound, the IC50 (DRB3) was greater than 100000 nM, the IC50 (DRB4) was 6000 nM and the IC50 (DRB5) was 9 nM. It also gave an IC50 (DR11) of 58 nM and an IC50 (DP401) of 4520 nM.
In the case of `CC[C@H](C)[C@H](NC(=O)[C@H](CS)NC(=O)CNC(=O)[C@H](CC(C)C)NC(=O)[C@H](CC(C)C)NC(=O)CNC(=O)[C@H](CCCNC(=N)N)NC(=O)[C@@H](N)[C@@H](C)O)C(=O)N[C@H](C(=O)N[C@H](C(=O)N[C@@H](CO)C(=O)N[C@@H](CC(C)C)C(=O)N[C@H](C(=O)NCC(=O)N[C@@H](CCCNC(=N)N)C(=O)N[C@@H](CC(=O)O)C(=O)N[C@@H](CCCCN)C(=O)N[C@@H](CC(N)=O)C(=O)N[C@@H](CCC(N)=O)C(=O)N[C@H](C(=O)O)C(C)C)[C@@H](C)O)[C@@H](C)O)[C@@H](C)CC` [9N 1036-1055] (H-TRGLLGCIITSLTGRDKNQV-OH; N-terminus and C-terminus assumed), the IC50 (HLA-DR1 (DRB1*0101); competition with biotinylated tracer HA 306-318, read-out: IC50, binding to HLA-DR1) is reported as 51 nM, the IC50 (HLA-DR1 (DRB1*0101); [3]) is reported as less than 1000 nM and the IC50 (HLA-DR3 (DRB1*0301)) is reported as greater than 100000 nM. The IC50 (HLA-DR4 (DRB1*0401); read-out: binds with good affinity to DR4) was less than 1000 nM, the IC50 (HLA-DR4 (DRB1*0401); tracer HA 306-318, read-out: IC50, binding to HLA-DR4) was 950 nM and the IC50 (HLA-DR7 (DRB1*0701); read-out: IC50, binding to HLA-DR7) was 2600 nM. For the same compound, the IC50 (HLA-DR11 (DRB1*1101); [4]) was less than 1000 nM, the IC50 (HLA-DR11 (DRB1*1101); tracer HA 306-318, read-out: IC50, binding to HLA-DR11) was 700 nM and the IC50 (HLA-DR13 (DRB1*1301); tracer B1 21-36, read-out: IC50, binding to HLA-DR13) was greater than 100000 nM. For the same compound, the IC50 (HLA-DR15 (DRB1*1501); read-out: IC50, binding to HLA-DR15) was 5500 nM, the IC50 (HLA-DRB4 (DRB4*0101); read-out: binds with good affinity to DRB4) was less than 1000 nM and the IC50 (HLA-DRB4 (DRB4*0101); tracer E2/E168, read-out: IC50, binding to HLA-DRB4) was 1000 nM. The IC50 (HLA-DRB5 (DRB5*0101); [5]) was less than 1000 nM, the IC50 (HLA-DRB5 (DRB5*0101); tracer HA 306-318, read-out: IC50, binding to HLA-DRB5) was 53 nM and the IL10 ([1]; patient 067) was 58 pg/mL. For the same compound, the IL10 ([1]; patient 078) was 58 pg/mL, the IL10 ([1]; patient 659) was 18 pg/mL and the IL10 ([1]; patient 815) was 156 pg/mL. It also gave an IL2 ([1]; patient 862) of 29.1 pg/mL, an IC50 (DR1) of 93 nM and an IC50 (DR3) of 6000 nM. For the same compound, the IC50 (DR4) was 60 nM, the IC50 (DR15) was 10000 nM and the IC50 (DRB4) was 150 nM. For the same compound, the IC50 (DRB5) was 10 nM, the IC50 (DP401) was 5330 nM and the IC50 (DP402) was 4580 nM.
For RLRAYMNTPGLPVAQ [28N 1538-1552], the “response of line P014/C (T lymphocytes secreting IFN-γ)” value [2] was “responds”.
In the case of GIFRAAVCTRGVAKA [15N 1178-1192], the “response of line P014/A (T lymphocytes secreting IFN-γ)” value [2] is reported as “responds” and the “response of line P014/C (T lymphocytes secreting IFN-γ)” value [2] is reported as “responds”.
For VSKGWRLLAPITAYA [8N 1019-1033], the “response of line P014/B (T lymphocytes secreting IFN-γ)” value ([2]; line P014/B, FIG. 5B) was “responds”.
KVLVLNPSVAATLGF [18N 1250-1264] was tested, and the “response of line P014/A (T lymphocytes secreting IFN-γ)” value [2] was “responds”.
